In patent US20260209297A1, “ANTIMICROBIAL PEPTIDES AND MODIFICATIONS THEREOF” (priority 2022, published 2026):
Converted amounts (≈) assume the structure as drawn. Positions of bridges follow the written chain, without caps; N, C: chain ends. Non-standard residues stand in square brackets, D forms with d. Residues, ends and D or L forms follow the SMILES beside them. No end group written: not given here. Dab = NCC[C@H](N)C(=O)O

Assays:
[1] = system: Botrytis cinerea T4; format: cell-based
[2] = system: Fusarium graminearum PH-1; format: cell-based; conditions: for F. graminearum PH-1 MIC Day 1: Fusarium graminearum PH-1, 96-well, resazurin viability
[3] = system: P. capsici; experiment: MIC antifungal assay in SFM culture media; format: cell-based; conditions: in vitro, low cationic conditions
[4] = system: F. graminearum; format: cell-based, Fusarium graminearum; conditions: in vitro, low cationic conditions
[5] = system: B. cinerea; experiment: MIC antifungal assay in SFM culture media (with or without added salts); format: cell-based, Botrytis cinerea; conditions: for antifungal activity relative to the wild-type GMA4C_AC control, B. cinerea: in vitro, low cationic conditions
[6] = system: F. oxysporum; experiment: MIC antifungal assay in SFM culture media; format: cell-based; conditions: in vitro, low cationic conditions
[7] = system: B. cinerea; experiment: Semi-in planta gray mold assay on detached Nicotiana benthamiana leaves (drop inoculation); format: in vivo, Botrytis cinerea; conditions: for reducing gray mold disease symptoms (lesion sizes): detached N. benthamiana leaves, 1.5 μM, 3 μM and 6 μM, 48 h
[8] = system: Colletotrichum gloeosporioides; experiment: 96-well plate MIC assay with resazurin viability; format: cell-based; conditions: Table 19; unit not given (peptide concentrations in μM)
[9] = system: Alternaria alternata; experiment: 96-well plate MIC assay with resazurin viability; format: cell-based; conditions: Table 19; unit not given (peptide concentrations in μM)
[10] = system: Botrytis cinerea T-4; conditions: Table 18
[11] = system: Cercospora sojina; experiment: 96-well plate MIC assay with resazurin viability; format: cell-based; conditions: Table 19; unit not given (peptide concentrations in μM)

Molecule | MIC Colletotrichum gloeosporioides [8] | MIC Alternaria alternata [9] | MIC (μM) SFM [10] | MIC (μM) (SFM + 2 mM CaCl2) [10] | MIC (μM) (SFM + 100 mM NaCl) [10] | MIC Cercospora sojina [11] | MIC (μM) (SFM + 100 mM KCl) [10] | also measured
C[C@@H]1[C@H](O)[C@@H](C)/C=C/C=C/C=C/C=C/C=C/C=C/C=C/[C@H](O[C@@H]2O[C@H](C)[C@@H](O)[C@H](N)[C@@H]2O)C[C@@H]2O[C@](O)(C[C@@H](O)C[C@@H](O)[C@H](O)CC[C@@H](O)C[C@@H](O)CC(=O)O[C@H]1C)C[C@H](O)[C@H]2C(=O)O [Amphotericin-B, reference compound] |  |  |  |  |  |  |  | MIC against B. cinerea [1]: 3 µM (≈ 2.77 µg/mL); MIC against F. graminearum ([2]; F. graminearum PH-1, Example 7): 6 µM (≈ 5.54 µg/mL); F. graminearum PH-1 MIC Day 1 [2]: 6 µM
N=C(N)NCCC[C@H](NC(=O)CNC(=O)[C@@H](N)Cc1ccccc1)C(=O)N[C@@H](CS)C(=O)N[C@@H](CCCNC(=N)N)C(=O)NCC(=O)N[C@@H](Cc1ccccc1)C(=O)N[C@@H](CCCNC(=N)N)C(=O)N[C@@H](CCCNC(=N)N)C(=O)N[C@@H](CCCNC(=N)N)C(=O)N[C@@H](CS)C(=O)N[C@@H](Cc1ccccc1)C(=O)N[C@@H](CS)C(=O)N[C@@H](Cc1c[nH]c2ccccc12)C(=O)N[C@@H](CCCNC(=N)N)C(=O)N[C@@H](Cc1c[nH]c2ccccc12)C(=O)N[C@@H](CS)C(N)=O [GMA4C_V4A] (H-FGRCRGFRRRCFCWRWC-NH2; N-terminus assumed) |  |  |  |  |  |  |  | antifungal activity relative to the wild-type GMA4C_AC control, P. capsici [3]: equivalent; antifungal activity relative to the wild-type GMA4C_AC control, F. graminearum [4]: equivalent; fungal growth inhibition at 6 μM ([5]; B. cinerea, in presence of 2 mM CaCl2, 6 μM): inhibit fungal growth; potency of activity relative to GMA4C_AC ([5]; B. cinerea, in presence of 100 mM NaCl or 100 mM KCl): 2 fold; antifungal activity relative to the wild-type GMA4C_AC control, B. cinerea [5]: equivalent; antifungal activity relative to the wild-type GMA4C_AC control, F. oxysporum [6]: equivalent
NCC[C@H](NC(=O)CNC(=O)[C@@H](N)Cc1ccccc1)C(=O)N[C@@H](CS)C(=O)N[C@@H](CCN)C(=O)NCC(=O)N[C@@H](Cc1ccccc1)C(=O)N[C@@H](CCN)C(=O)N[C@@H](CCN)C(=O)N[C@@H](CCN)C(=O)N[C@@H](CS)C(=O)N[C@@H](Cc1ccccc1)C(=O)N[C@@H](CS)C(=O)N[C@@H](Cc1c[nH]c2ccccc12)C(=O)N[C@@H](CCN)C(=O)N[C@@H](Cc1c[nH]c2ccccc12)C(=O)N[C@@H](CS)C(N)=O [GMA4C_V5A, FG(Dab)C(Dab)GF(Dab)(Dab)(Dab)CFCW(Dab)WC-NH2] (H-FG[Dab]C[Dab]GF[Dab][Dab][Dab]CFCW[Dab]WC-NH2; N-terminus assumed) |  |  |  |  |  |  |  | antifungal activity relative to the wild-type GMA4C_AC control, P. capsici [3]: equivalent; antifungal activity relative to the wild-type GMA4C_AC control, F. graminearum [4]: equivalent; antifungal activity relative to the wild-type GMA4C_AC control, B. cinerea [5]: equivalent; antifungal activity relative to the wild-type GMA4C_AC control, F. oxysporum [6]: equivalent
CC[C@H](C)[C@@H]1NC(=O)[C@H](CCCNC(=N)N)NC(=O)[C@H]([C@@H](C)O)NC(=O)[C@H](Cc2ccccc2)NC(=O)[C@H](Cc2c[nH]c3ccccc23)NC(=O)[C@H](Cc2ccccc2)NC(=O)[C@H](CCCNC(=N)N)NC(=O)[C@H](CCCNC(=N)N)NC(=O)[C@H](CC(C)C)NC(=O)[C@H](Cc2ccccc2)NC(=O)CNC(=O)[C@H](CCCCN)NC(=O)[C@@H](NC(=O)[C@H](CCCNC(=N)N)NC(=O)CNC(=O)CN)CSSC[C@@H](C(N)=O)NC1=O [GMA4C_V9] (H-GGRCKGFLRRFWFTRIC-NH2; disulfide 4-17; N-terminus assumed) | >12 | >12 | 3 µM (≈ 6.3 µg/mL) | 12 µM | 3 µM | 6 |  | reducing gray mold disease symptoms (lesion sizes) [7]: effective
CC[C@H](C)[C@@H]1NC(=O)[C@H](CCCNC(=N)N)NC(=O)[C@H]([C@@H](C)O)NC(=O)[C@H](Cc2c[nH]c3ccccc23)NC(=O)[C@H](Cc2ccc(O)cc2)NC(=O)[C@H](Cc2c[nH]c3ccccc23)NC(=O)[C@H](CCCNC(=N)N)NC(=O)[C@H](CCCNC(=N)N)NC(=O)[C@H](CCCNC(=N)N)NC(=O)[C@H](Cc2ccccc2)NC(=O)CNC(=O)[C@H](CCCCN)NC(=O)[C@@H](NC(=O)[C@H](CCCNC(=N)N)NC(=O)CNC(=O)CN)CSSC[C@@H](C(N)=O)NC1=O [GMA4C_V10] (H-GGRCKGFRRRWYWTRIC-NH2; disulfide 4-17; N-terminus assumed) | >12 | >12 | 3 µM (≈ 6.6 µg/mL) | 3 µM | 3 µM | 6 | 3 to 6 µM | reducing gray mold disease symptoms (lesion sizes) [7]: effective; reducing the symptoms of gray mold, comparison ([7]; low concentrations of 1.5 μM and 3 μM, compared with GMA4C_V9): more effective
C[C@H](NC(=O)CN)C(=O)N[C@H]1CSSC[C@@H](C(N)=O)NC(=O)[C@H](CCCCN)NC(=O)[C@H](CCCCN)NC(=O)[C@H](Cc2ccc(O)cc2)NC(=O)[C@H](Cc2c[nH]c3ccccc23)NC(=O)[C@H](Cc2ccccc2)NC(=O)[C@H](Cc2c[nH]c3ccccc23)NC(=O)[C@H](C)NC(=O)[C@H](Cc2ccccc2)NC(=O)CNC(=O)[C@H](Cc2ccccc2)NC(=O)CNC(=O)[C@H](CCC(N)=O)NC(=O)[C@H](CCCNC(=N)N)NC(=O)[C@H](Cc2c[nH]cn2)NC1=O [GMA5CA_V3] (H-GACHRQGFGFAWFWYKKC-NH2; disulfide 3-18; N-terminus assumed) | >12 | 3 | 3 µM (≈ 6.57 µg/mL) | >12 µM | >12 µM | 6 | >12 µM | 
C[C@H](NC(=O)CN)C(=O)N[C@H]1CSSC[C@@H](C(N)=O)NC(=O)[C@H](CCCCN)NC(=O)[C@H](CCCCN)NC(=O)[C@H](Cc2ccc(O)cc2)NC(=O)[C@H](Cc2ccccc2)NC(=O)[C@H](Cc2ccccc2)NC(=O)[C@H](Cc2ccccc2)NC(=O)[C@H](C)NC(=O)[C@H](Cc2ccccc2)NC(=O)CNC(=O)[C@H](Cc2ccccc2)NC(=O)CNC(=O)[C@H](CCC(N)=O)NC(=O)[C@H](CCCNC(=N)N)NC(=O)[C@H](Cc2c[nH]cn2)NC1=O [GMA5CA_V4] (H-GACHRQGFGFAFFFYKKC-NH2; disulfide 3-18; N-terminus assumed) | >12 | 3 | 3 µM (≈ 6.33 µg/mL) | >12 µM | >12 µM | 6 | >12 µM | 
C[C@H](NC(=O)CN)C(=O)N[C@@H](CS)C(=O)N[C@@H](Cc1c[nH]cn1)C(=O)N[C@@H](CCCNC(=N)N)C(=O)N[C@@H](CCC(N)=O)C(=O)NCC(=O)N[C@@H](Cc1ccccc1)C(=O)NCC(=O)N[C@@H](Cc1ccccc1)C(=O)N[C@@H](C)C(=O)N[C@@H](CS)C(=O)N[C@@H](Cc1ccccc1)C(=O)N[C@@H](CS)C(=O)N[C@@H](Cc1ccc(O)cc1)C(=O)N[C@@H](CCCCN)C(=O)N[C@@H](CCCCN)C(=O)N[C@@H](CS)C(N)=O [GMA5CA_WT, reference compound] (H-GACHRQGFGFACFCYKKC-NH2; N-terminus assumed) | >12 | 6 |  |  |  | 12 |  | 
GRCRGFRRRCFCTTHC-NH2 (cysteine pairing not given here) [GMA4AC_WT, reference compound] | >12 | >12 |  |  |  | >12 |  | 
PD81.1.1: SEQ ID NO: 534 with N-terminal alanine; Pinus sylvestris wild-type defensin, expressed in Pichia pastoris (RMCKTPSGKFKGYCVSSTNCKNVCRTEGFPTGSCDFHVASRKCYCYKPC; N-terminal alanine added; listed as Pinus sylvestris) |  |  |  |  |  |  |  | MIC against B. cinerea [1]: 1 µM; F. graminearum PH-1 MIC Day 1 [2]: 1.5 µM
